Data set [1] concerns CV-1 cells. The data set is described as follows: MTT assay, cytotoxicity. Type of data set: cell-based. As to conditions: 24 hours, even at the concentration of 100,000 times the EC50 value. The procedure:
MTT assay was performed to test cytotoxicity of the compounds of the present invention. MTT is a yellow substance soluble in water, but when it is introduced into a living cell, it turns into a purple insoluble crystal by dehydrogenase in mitochondria. Cytotoxicity can be confirmed by measuring OD550 after dissolving MTT in dimethylsulfoxide. The experiment was performed as follows.
CV-1 cells were inoculated in a 96-well plate (5000 cells/well). The cells were cultured in a 37[…] 5% CO2 incubator for 24 hours, and treated with the compounds of formula 1 and formula 2 at different concentrations. Then, the cells were cultured for 24 hours again, to which MTT reagent was added. After culturing for 15 minutes, the generated purple crystals were dissolved in dimethylsulfoxide. Optical density was measured with a microplate reader to confirm cytotoxicity.
On the technique in general: Tetrazolium assays rely on reduction of a dye to a coloured formazan, in cell work by metabolically active cells.

Data set [2] concerns the target T1, PPARα (Homo sapiens, UniProt Q07869).
T1 construct: Full length PPARs plasmid DNA, reporter DNA confirming PPARs activity owing to its luciferase activity; expressed in transfected cells; host or cells: CV-1 cells
T1 sequence (Q07869 1-468): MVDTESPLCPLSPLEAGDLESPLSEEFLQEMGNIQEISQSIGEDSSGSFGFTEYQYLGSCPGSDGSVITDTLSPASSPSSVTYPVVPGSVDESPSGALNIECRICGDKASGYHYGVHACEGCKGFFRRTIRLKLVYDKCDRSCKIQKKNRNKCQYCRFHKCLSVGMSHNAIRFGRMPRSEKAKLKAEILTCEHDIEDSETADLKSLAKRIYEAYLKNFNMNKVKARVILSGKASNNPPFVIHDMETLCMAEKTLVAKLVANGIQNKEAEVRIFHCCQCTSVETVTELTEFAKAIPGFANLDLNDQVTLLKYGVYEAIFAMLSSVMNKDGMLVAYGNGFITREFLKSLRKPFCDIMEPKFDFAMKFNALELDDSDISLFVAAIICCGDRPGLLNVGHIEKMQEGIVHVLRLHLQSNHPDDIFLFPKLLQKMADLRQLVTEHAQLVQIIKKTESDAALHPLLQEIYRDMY
The data set can be described thus: Transfection assay (luciferase reporter) in CV-1 cells, PPARα. Type of data set: cell-based. As to conditions: 24 hours treatment. As for the experimental part: (§1) The PPARδ activities of the R-form compound represented by formula 1 of the present invention and the S-form compound represented by formula 2 were measured by transfection assay. In addition, the selectivity to PPAR subtypes, PPARα and PPARγ, was examined. Cytotoxicity was tested by MTT assay and in vivo activity and toxicity was investigated by animal experiment using mice.
(§2) CV-1 cells were used in this assay. The cells were inoculated in a 96-well plate containing DMEM supplemented with 10% FBS, DBS (delipidated) and 1% penicillin/streptomycin and cultured in a 37 °C, 5% CO2 incubator. The experiment was performed according to the steps of inoculation, transfection, sample treatment and confirmation. Particularly, CV-1 cells were inoculated in a 96 well-plate (5000 cells/well), followed by transfection 24 hours later. Full length PPARs plasmid DNA, reporter DNA confirming PPARs activity owing to its luciferase activity, β-galactosidase DNA providing information on transfection efficiency, and transfection reagent were used for the transfection. The compounds of formula 1 and formula 2 were dissolved in dimethylsulfoxide (DMSO), which were treated to the cells via media at different concentrations. […] Luciferase activity and β-galactosidaseactivity were measured with Luminometer and a microplate reader. […] A graph was made with those values and EC50 was calculated.
Background: A reporter such as luciferase makes a cellular process visible.

In data set [3] the target is T2, PPARδ (Homo sapiens, UniProt Q03181).
T2 sequence (Q03181 1-441): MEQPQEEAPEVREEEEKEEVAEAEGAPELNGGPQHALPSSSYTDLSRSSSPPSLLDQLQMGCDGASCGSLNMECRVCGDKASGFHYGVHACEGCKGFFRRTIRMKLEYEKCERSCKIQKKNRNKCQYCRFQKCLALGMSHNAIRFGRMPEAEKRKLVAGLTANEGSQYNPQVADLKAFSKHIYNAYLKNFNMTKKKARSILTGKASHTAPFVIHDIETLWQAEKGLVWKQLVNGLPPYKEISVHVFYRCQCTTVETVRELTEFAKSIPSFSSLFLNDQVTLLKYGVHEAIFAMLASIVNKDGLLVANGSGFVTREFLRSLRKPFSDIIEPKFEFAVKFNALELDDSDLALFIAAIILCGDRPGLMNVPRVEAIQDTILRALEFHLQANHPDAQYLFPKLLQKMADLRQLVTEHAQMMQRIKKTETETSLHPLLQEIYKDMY
The data set is described as follows: Transfection assay (luciferase reporter) in CV-1 cells, PPARδ. Type of data set: cell-based. Also on record: Full length PPARs plasmid DNA, reporter DNA confirming PPARs activity owing to its luciferase activity; expressed in transfected cells; host or cells: CV-1 cells. As to conditions: CV-1 cells, 24 hours treatment. As for the experimental part:
as §1
CV-1 cells were used in this assay. The cells were inoculated in a 96-well plate containing DMEM supplemented with 10% FBS, DBS (delipidated) and 1% penicillin/streptomycin and cultured in a 37 °C, 5% CO2 incubator. The experiment was performed according to the steps of inoculation, transfection, sample treatment and confirmation. Particularly, CV-1 cells were inoculated in a 96 well-plate (5000 cells/well), followed by transfection 24 hours later. Full length PPARs plasmid DNA, reporter DNA confirming PPARs activity owing to its luciferase activity, β-galactosidase DNA providing information on transfection efficiency, and transfection reagent were used for the transfection. The compounds of formula 1 and formula 2 were dissolved in dimethylsulfoxide (DMSO), which were treated to the cells via media at different concentrations. After culturing the cells in the incubator for 24 hours, the cells were lysed by using lysis buffer. Luciferase activity and β-galactosidaseactivity were measured with Luminometer and a microplate reader. The obtained values of luciferase were modified by the values of β-galactosidase. A graph was made with those values and EC50 was calculated.

The target in data set [4] is T3, PPARγ (Homo sapiens, UniProt P37231).
T3 construct: Full length PPARs plasmid DNA, reporter DNA confirming PPARs activity owing to its luciferase activity; expressed in transfected cells; host or cells: CV-1 cells
T3 sequence (P37231 1-505): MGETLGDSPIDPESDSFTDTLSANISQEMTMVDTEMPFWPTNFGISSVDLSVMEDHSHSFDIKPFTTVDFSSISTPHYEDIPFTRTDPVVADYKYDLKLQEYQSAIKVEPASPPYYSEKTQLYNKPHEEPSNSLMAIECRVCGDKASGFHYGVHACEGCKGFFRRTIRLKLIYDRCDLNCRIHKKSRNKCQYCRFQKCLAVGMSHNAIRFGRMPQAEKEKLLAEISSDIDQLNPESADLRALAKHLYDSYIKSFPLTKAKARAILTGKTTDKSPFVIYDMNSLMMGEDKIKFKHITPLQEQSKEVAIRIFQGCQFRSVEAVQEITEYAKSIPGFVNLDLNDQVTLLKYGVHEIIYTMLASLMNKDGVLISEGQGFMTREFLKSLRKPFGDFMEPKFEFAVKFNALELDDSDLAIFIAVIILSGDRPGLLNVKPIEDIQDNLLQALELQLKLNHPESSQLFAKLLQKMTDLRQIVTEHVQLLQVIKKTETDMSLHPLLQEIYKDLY
The data set can be described thus: Transfection assay (luciferase reporter) in CV-1 cells, PPARγ. Type of data set: cell-based. As to conditions: 24 hours treatment. The procedure: as §1, §2

Data set [5] has as its system mice. The data set can be described thus: GTT (glucose tolerance test), diabetes improving effect. It is filed as in vivo. As to conditions: glucose 1.5 g/Kg intra-abdominal, oral pre-treatment 78 days. The procedure: GTT (glucose tolerance test) was performed to confirm the diabetes improving effect of the compound of the present invention. Glucose (1.5 g/Kg) was intra-abdominally administered to the mice pre-treated orally with samples for 78 days. Blood glucose was measured every hour. Fasting blood glucose was lower in the group treated with the compound of the present invention than in the group treated with vehicle or GW501516.

Data set [6] relates to C57BL/6 mice. The data set can be described thus: Hyperlipidemia improving effect, blood HDL level. Type of data set: in vivo. As to conditions: 10 mg/kg/day oral, high fat feeds, 6 weeks, serum. The procedure: In vivo animal test using C57BL/6 (SLC Co.) mice at 6 weeks was performed to confirm the hyperlipidemia improving effect of the compound of the present invention. […] 6 weeks later, blood was taken from orbital veins. Serum was separated and blood HDL level was measured by biochemical method.

Data set [7] concerns C57BL/6 mice. The data set is described as follows: Obesity inhibitory effect, high-fat feed. Type of data set: in vivo. As to conditions: 10 mg/Kg/day oral, 35% fat feed for 35 days; vehicle 58.9%. The procedure:
An animal test using mice was performed to confirm the in vivo effect of the compound of the present invention. C57BL/6 (SLC Co.) mice at 14 weeks were used. To induce obesity, feeds containing 35% fat were given.

In data set [8] the target is T2, PPARδ. As to conditions: literature; cited from earlier work.

Like-named read-outs stand apart in the source and are kept apart here.

The EC50 is the concentration needed to bring the measured effect to its halfway point.

Take `Cc1cc(S[C@@H](Cc2ccccc2)c2sc(-c3ccc(C(F)(F)F)cc3)nc2C)ccc1OCC(=O)O` [formula 2]: in data set [1], the cytotoxicity result is recorded as “not to have cytotoxicity”. In data set [2], the “EC50 PPARα” value is listed as “ia”. Moreover, the EC50 in data set [3] amounted to 5.1 nM. In data set [4], the “EC50 PPARγ” value is reported as “ia”.
`Cc1cc(SCc2sc(-c3ccc(C(F)(F)F)cc3)nc2C)ccc1OCC(=O)O` [GW501516, [2-methyl-4-[[[4-methyl-2-[4-(trifluoromethyl)phenyl]-1,3-thiazol-5-yl]methyl]sulfanyl]phenoxy]acetic acid, reference compound]: in data set [5], the “blood glucose compared with vehicle” value was “lower blood glucose than the vehicle treated group” and the “recovery of blood glucose level to normal” value is reported as “not recovered to normal”. Moreover, the “HDL level increase compared with the control” value in data set [6] worked out at 36.3%. In data set [7], this molecule returned a weight increase of 26.5%.
Consider `CCCc1c(OCCCOc2ccc(OCC(=O)O)cc2)ccc(C(C)=O)c1O` [L-165041], for which, in data set [8], the half-maximal effective concentration (EC50) is 530 nM and the “selectivity to hPPARδ over PPARα or PPARγ” value was 10 times.

The record behind these values is patent publication US8431715B2, “Thiazole compound (as PPARδ) ligand and pharmaceutical, cosmetic and health food comprised thereof” (Seoul National University Industry Foundation, priority 2007, dated 2013).
